According to US12582641B2, “Sulfur-containing compound based on glutarimide skeleton and application thereof” (SHANGHAITECH UNIVERSITY, priority 2019, dated 2026):

Tested on: MM.1S cells
Assay: Proliferation inhibition (IC50) in MM.1S cells, cell viability assay
Settings: Homo sapiens, MM1.S, 72 h, read-out: IC50 (nM), proliferation inhibitory activity of MM.1S cells (half inhibitory concentration)
Method: MM.1S (B lymphoblast) was purchased from ATCC. Complete medium was RPMI1640 supplemented with 10% FBS and 1% Penicillin-Streptomycin. The cells used were identified as correct cells by STR cells, and were negative for mycoplasma through routine inspections.
IC50 values of the compounds of the present disclosure were measured using Cell Titer Blue, Cell Titer GLO, or WST reagent from Promega Company. Assay details are as follows: Cells were seeded in 100 μL RPMI1640 complete medium containing serum at a density of 15,000 cells/well. After 24 h, the inoculated cells were treated with diluted commercial inhibitor and the compounds of the present disclosure to be tested after serial dilution. After the cells were treated with the compounds of the present disclosure to be tested for 72 h, cell viability was determined after adding the cell viability detection kit listed above according to the reagent operating instructions. The negative control was DMSO, and the positive control was a commercial inhibitor, both of which were used to treat the cells through the same method as that of the compounds of the present disclosure. The growth inhibition of the compounds of the present disclosure on cells was plotted by Prism Graphpad software, and the IC50 values of the compounds of the present disclosure were calculated therefrom.
We tested the activities of the compounds of the present invention in MM.1S cell (which overexpressed IKZF1/3 and is highly sensitive to immunomodulatory drugs) through a dose-dependent manner. The cells were treated with the compounds of the present invention at 10 different successively decreasing concentrations (starting at the highest concentration of 10 μM; 5-fold serial dilutions) for 72 h, and then the cell viability determination was performed in accordance with CCK-8 reagent operating instructions. The experiment was repeated more than three times.

| Compound | IC50 |
| --- | --- |
| CC1(C)[C@@H]2CC[C@@]1(C)[C@@H](NCCCCCSc1cccc3c1CN(C1CCC(=O)NC1=O)C3=O)C2 (stereo partly drawn) [SIAIS1221113, 3-(1-oxo-4-((5-(((1R,2S,4R)-1,7,7-trimethylbicyclo[2.2.1]heptan-2-yl)amino)pentyl)thio)isoindolin-2-yl)piperidine-2,6-dione] | 0.027 nM |
| CC1(C)[C@@H]2CC[C@@]1(C)[C@@H](NCCCCCCSc1cccc3c1CN(C1CCC(=O)NC1=O)C3=O)C2 (stereo partly drawn) [SIAIS1221115, 3-(1-oxo-4-((6-(((1R,2S,4R)-1,7,7-trimethylbicyclo[2.2.1]heptan-2-yl)amino)hexyl)thio)isoindolin-2-yl)piperidine-2,6-dione] | 0.082 nM |
| O=C1CCC(N2Cc3c(SCCCCCCN4CCC5(CCCCC5)CC4)cccc3C2=O)C(=O)N1 (centres unmarked) [SIAIS1221121, 3-(4-((6-(3-azaspiro[5.5]undecan-3-yl)hexyl)thio)-1-oxoisoindolin-2-yl)piperidine-2,6-dione] | 0.057 nM |
| O=C1CCC(N2Cc3c(SCCCCCN4CCC5(CCCCC5)CC4)cccc3C2=O)C(=O)N1 (centres unmarked) [SIAIS1221123, 3-(4-((5-(3-azaspiro[5.5]undecan-3-yl)pentyl)thio)-1-oxoisoindolin-2-yl)piperidine-2,6-dione] | 0.051 nM |
| CN(CCCCCCCSc1cccc2c1CN(C1CCC(=O)NC1=O)C2=O)C1CCC(C)(C)CC1 (centres unmarked) [SIAIS1221125, 3-(4-((7-((4,4-dimethylcyclohexyl)(methyl)amino)heptyl)thio)-1-oxoisoindolin-2-yl)piperidine-2,6-dione] | 0.035 nM |
| CN(CCCCCCSc1cccc2c1CN(C1CCC(=O)NC1=O)C2=O)CC12CC3CC(CC(C3)C1)C2 (centres unmarked) [SIAIS1221127, 3-(4-((6-((adamantan-1-ylmethyl)(methyl)amino)hexyl)thio)-1-oxoisoindolin-2-yl)piperidine-2,6-dione] | 0.059 nM |
| CN(CCCCCCCSc1cccc2c1CN(C1CCC(=O)NC1=O)C2=O)[C@H]1C[C@H]2CC[C@]1(C)C2(C)C (stereo partly drawn) [SIAIS1221129, 3-(4-((7-(methyl((1R,2S,4R)-1,7,7-trimethylbicyclo[2.2.1]heptan-2-yl)amino)heptyl)thio)-1-oxoisoindolin-2-yl)piperidine-2,6-dione] | 0.021 nM |
| CN1C(=O)CCC(N2Cc3c(SCCCCCCCNC45CC6CC(CC(C6)C4)C5)cccc3C2=O)C1=O (centres unmarked) [SIAIS1221149, 3-(4-((7-(adamantan-1-ylamino)heptyl)thio)-1-oxoisoindolin-2-yl)-1-methylpiperidine-2,6-dione] | 21.9 nM |
| O=C1CCC(N2C(=O)c3cccc(SCCCCCCCNC4CCCCC4)c3C2=O)C(=O)N1 (centres unmarked) [SIAIS1221175, 4-((7-(cyclohexylamino)heptyl)thio)-2-(2,6-dioxopiperidin-3-yl)isoindoline-1,3-dione] | 0.938 nM |
| CC1(C)[C@@H]2CC[C@@]1(C)[C@@H](NCCCCCCCSc1cccc3c1C(=O)N(C1CCC(=O)NC1=O)C3=O)C2 (stereo partly drawn) [SIAIS1221177, 2-(2,6-dioxopiperidin-3-yl)-4-((7-(((1R,2S,4R)-1,7,7-trimethylbicyclo[2.2.1]heptan-2-yl)amino)heptyl)thio)isoindoline-1,3-dione] | 0.258 nM |
| CN(CCCCCCCSc1cccc2c1C(=O)N(C1CCC(=O)NC1=O)C2=O)C12CC3CC(CC(C3)C1)C2 (centres unmarked) [SIAIS1222029, 4-((7-((adamantan-1-yl)(methyl)amino)heptyl)thio)-2-(2,6-dioxopiperidin-3-yl)isoindoline-1,3-dione] | 0.21 nM |
| O=C1CCC(N2C(=O)c3cccc(SCCCCCCNCC45CC6CC(CC(C6)C4)C5)c3C2=O)C(=O)N1 (centres unmarked) [SIAIS1222071, 4-((6-(((adamantan-1-yl)methyl)amino)hexyl)thio)-2-(2,6-dioxopiperidin-3-yl)isoindoline-1,3-dione] | 2.12 nM |
| CC(C)(C)NCCCCCCCSc1cccc2c1CN(C1CCC(=O)NC1=O)C2=O (centres unmarked) [SIAIS1222079, 3-(4-((7-(tert-butylamino)heptyl)thio)-1-oxoisoindolin-2-yl)piperidine-2,6-dione] | 0.135 nM |
| O=C1CCC(N2C(=O)c3cccc(SCCCCCNC45CC6CC(CC(C6)C4)C5)c3C2=O)C(=O)N1 (centres unmarked) [SIAIS1222097, 4-((5-((adamantan-1-yl)amino)pentyl)thio)-2-(2,6-dioxopiperidin-3-yl)isoindoline-1,3-dione] | 0.409 nM |
| O=C1CCC(N2Cc3c(SCCCCCCCN4C[C@H]5CCCC[C@H]5C4)cccc3C2=O)C(=O)N1 (stereo partly drawn) [SIAIS1222107, 3-(4-((7-((3aR,7aS)-hexahydro-1H-isoindol-2(3H)-yl)heptyl)thio)-1-oxoisoindolin-2-yl)piperidine-2,6-dione] | 0.05 nM |
| O=C1CCC(N2C(=O)c3cccc(SCCCCCCNC45CC6CC(CC(C6)C4)C5)c3C2=O)C(=O)N1 (centres unmarked) [SIAIS1222109, 4-((6-((adamantan-1-yl)amino)hexyl)thio)-2-(2,6-dioxopiperidin-3-yl)isoindoline-1,3-dione] | 0.404 nM |
| CC(NCCCCCCSc1cccc2c1CN(C1CCC(=O)NC1=O)C2=O)C12CC3CC(CC(C3)C1)C2 (centres unmarked) [SIAIS1222139, 3-(4-((6-((1-(adamantan-1-yl)ethyl)amino)hexyl)thio)-1-oxoisoindolin-2-yl)piperidine-2,6-dione] | 0.131 nM |
| O=C1CCC(N2Cc3c(SCCCCCCNCC4CCCCC4)cccc3C2=O)C(=O)N1 (centres unmarked) [SIAIS1222147, 3-(4-((6-((cyclohexylmethyl)amino)hexyl)thio)-1-oxoisoindolin-2-yl)piperidine-2,6-dione] | 0.083 nM |

Second part, the molecule after the results:

| IC50 | Compound |
| --- | --- |
| 0.06 nM | O=C1CCC(N2Cc3c(SCCCCCNC45CC6CC(CC(C6)C4)C5)cccc3C2=O)C(=O)N1 (centres unmarked) [SIAIS1221117, 3-(4-((5-((adamantan-1-yl)amino)pentyl)thio)-1-oxoisoindolin-2-yl)piperidine-2,6-dione] |
| 0.458 nM | CC1(C)[C@@H]2CC[C@@]1(C)[C@@H](NCc1ccc(CSc3cccc4c3C(=O)N(C3CCC(=O)NC3=O)C4=O)cc1)C2 (stereo partly drawn) [SIAIS1221147, 2-(2,6-dioxopiperidin-3-yl)-4-((4-((((1R,2S,4R)-1,7,7-trimethylbicyclo[2.2.1]heptan-2-yl)amino)methyl)benzyl)thio)isoindoline-1,3-dione] |
| 0.621 nM | O=C1CCC(N2C(=O)c3cccc(SCc4ccc(CNC56CC7CC(CC(C7)C5)C6)cc4)c3C2=O)C(=O)N1 (centres unmarked) [SIAIS1222013, 4-((4-(((adamantan-1-yl)amino)methyl)benzyl)thio)-2-(2,6-dioxopiperidin-3-yl)isoindoline-1,3-dione] |
| 0.006 nM | O=C1CCC(N2Cc3c(SCCCCCCCNC4CC5(CCC5)C4)cccc3C2=O)C(=O)N1 (centres unmarked) [SIAIS1222077, 3-(1-oxo-4-((7-(spiro[3.3]heptan-2-ylamino)heptyl)thio)isoindolin-2-yl)piperidine-2,6-dione] |
| 0.029 nM | O=C1CCC(N2Cc3c(SCc4ccc(CNCC56CC7CC(CC(C7)C5)C6)cc4)cccc3C2=O)C(=O)N1 (centres unmarked) [SIAIS1222085, 3-(4-((4-(((adamantan-1-ylmethyl)amino)methyl)benzyl)thio)-1-oxoisoindolin-2-yl)piperidine-2,6-dione] |
| 0.25 nM | CN(CCCCCCCSc1cccc2c1CN(C1CCC(=O)NC1=O)C2=O)C1CC1 (centres unmarked) [SIAIS1222103, 3-(4-((7-(cyclopropyl(methyl)amino)heptyl)thio)-1-oxoisoindolin-2-yl)piperidine-2,6-dione] |
| 0.181 nM | O=C1CCC(N2Cc3c(SCCCCCCCNC4CC4)cccc3C2=O)C(=O)N1 (centres unmarked) [SIAIS1222105, 3-(4-((7-(cyclopropylamino)heptyl)thio)-1-oxoisoindolin-2-yl)piperidine-2,6-dione] |
| 0.182 nM | O=C1CCC(N2Cc3c(SCCCCCCCNC4CCC4)cccc3C2=O)C(=O)N1 (centres unmarked) [SIAIS1222115, 3-(4-((7-(cyclobutylamino)heptyl)thio)-1-oxoisoindolin-2-yl)piperidine-2,6-dione] |
| 0.123 nM | O=C1CCC(N2Cc3c(SCCCCCCCNC4CCCC4)cccc3C2=O)C(=O)N1 (centres unmarked) [SIAIS1222117, 3-(4-((7-(cyclopentylamino)heptyl)thio)-1-oxoisoindolin-2-yl)piperidine-2,6-dione] |
| 0.053 nM | O=C1CCC(N2Cc3c(SCCCCCCCNC45CC(C4)C5)cccc3C2=O)C(=O)N1 (centres unmarked) [SIAIS1222123, 3-(4-((7-(bicyclo[1.1.1]pentan-1-ylamino)heptyl)thio)-1-oxoisoindolin-2-yl)piperidine-2,6-dione] |
| 0.342 nM | O=C1CCC(N2Cc3c(SCCCCCCCNC45CC6CC(CC(O)(C6)C4)C5)cccc3C2=O)C(=O)N1 (centres unmarked) [SIAIS1222141] |
| 0.07 nM | O=C1CCC(N2Cc3c(SCCCCCCNC(=O)C45CC6CC(CC(C6)C4)C5)cccc3C2=O)C(=O)N1 (centres unmarked) [SIAIS1222143, N-(6-((2-(2,6-dioxopiperidin-3-yl)-1-oxoisoindolin-4-yl)thio)hexyl)adamantane-1-carboxamide] |
| 0.043 nM | O=C1CCC(N2Cc3c(SCCCCCCNC(=O)C45CC6CC(CC(Cl)(C6)C4)C5)cccc3C2=O)C(=O)N1 (centres unmarked) [SIAIS1222145, 3-chloro-N-(6-((2-(2,6-dioxopiperidin-3-yl)-1-oxoisoindolin-4-yl)thio)hexyl)adamantane-1-carboxamide] |
| 0.04 nM | CC(NCc1ccc(CSc2cccc3c2CN(C2CCC(=O)NC2=O)C3=O)cc1)C12CC3CC(CC(C3)C1)C2 (centres unmarked) [SIAIS1222157, 3-(4-((4-(((1-(adamantan-1-yl)ethyl)amino)methyl)benzyl)thio)-1-oxoisoindolin-2-yl)piperidine-2,6-dione] |
| 0.05 nM | O=C1CCC(N2Cc3c(SCc4ccc(CNC5CC6(CCC6)C5)cc4)cccc3C2=O)C(=O)N1 (centres unmarked) [SIAIS1222159, 3-(1-oxo-4-((4-((spiro[3.3]heptan-2-ylamino)methyl)benzyl)thio)isoindolin-2-yl)piperidine-2,6-dione] |
| 0.035 nM | O=C1CCC(N2Cc3c(SCc4ccc(CNC56CC(C5)C6)cc4)cccc3C2=O)C(=O)N1 (centres unmarked) [SIAIS1222161, 3-(4-((4-((bicyclo[1.1.1]pentan-1-ylamino)methyl)benzyl)thio)-1-oxoisoindolin-2-yl)piperidine-2,6-dione] |
| 0.42 nM | O=C1CCC(N2Cc3c(SCCC45CC6CC(CC(C6)C4)C5)cccc3C2=O)C(=O)N1 (centres unmarked) [SIAIS1222173, 3-(4-((2-(adamantan-1-yl)ethyl)thio)-1-oxoisoindolin-2-yl)piperidine-2,6-dione] |
